Test results reported in ChEMBL document CHEMBL2321724 (J Med Chem, 2013).

Experiments:
[1] = target: T1, Voltage-gated inwardly rectifying potassium channel KCNH2 (Homo sapiens, UniProt Q12809); assay: Displacement of [3H]astemizole from human ERG K+ channel expressed in HEK293 cells by scintillation spectrophotometric analysis
hERG (KCNH2) K+ channel [2] = target: T2, hERG (KCNH2) K+ channel (Homo sapiens, UniProt Q12809); assay: Displacement of [3H]astemizole from human ERG K+ channel expressed in HEK293 cells at 10 uM by scintillation spectrophotometric analysis
[3] = target: T1, Voltage-gated inwardly rectifying potassium channel KCNH2; assay: Inhibition of human ERG K+ channel expressed in HEK293 cells after 15 mins by patch clamp assay; format: cell-based
hERG (KCNH2) K+ channel [4] = target: T2, hERG (KCNH2) K+ channel; assay: Assay index, ratio of IC50 for human ERG K+ channel expressed in HEK293 cells by patch clamp assay to IC50 for human ERG K+ channel expressed in HEK293 cells by radioligand binding assay; format: cell-based; conditions: HEK293 cells expressing human ERG K+ channel, read-out: Ratio IC50
[5] = HEK293 cells expressing human ERG K+ channel, probe [3H]astemizole

T1 sequence (Q12809 whole entry): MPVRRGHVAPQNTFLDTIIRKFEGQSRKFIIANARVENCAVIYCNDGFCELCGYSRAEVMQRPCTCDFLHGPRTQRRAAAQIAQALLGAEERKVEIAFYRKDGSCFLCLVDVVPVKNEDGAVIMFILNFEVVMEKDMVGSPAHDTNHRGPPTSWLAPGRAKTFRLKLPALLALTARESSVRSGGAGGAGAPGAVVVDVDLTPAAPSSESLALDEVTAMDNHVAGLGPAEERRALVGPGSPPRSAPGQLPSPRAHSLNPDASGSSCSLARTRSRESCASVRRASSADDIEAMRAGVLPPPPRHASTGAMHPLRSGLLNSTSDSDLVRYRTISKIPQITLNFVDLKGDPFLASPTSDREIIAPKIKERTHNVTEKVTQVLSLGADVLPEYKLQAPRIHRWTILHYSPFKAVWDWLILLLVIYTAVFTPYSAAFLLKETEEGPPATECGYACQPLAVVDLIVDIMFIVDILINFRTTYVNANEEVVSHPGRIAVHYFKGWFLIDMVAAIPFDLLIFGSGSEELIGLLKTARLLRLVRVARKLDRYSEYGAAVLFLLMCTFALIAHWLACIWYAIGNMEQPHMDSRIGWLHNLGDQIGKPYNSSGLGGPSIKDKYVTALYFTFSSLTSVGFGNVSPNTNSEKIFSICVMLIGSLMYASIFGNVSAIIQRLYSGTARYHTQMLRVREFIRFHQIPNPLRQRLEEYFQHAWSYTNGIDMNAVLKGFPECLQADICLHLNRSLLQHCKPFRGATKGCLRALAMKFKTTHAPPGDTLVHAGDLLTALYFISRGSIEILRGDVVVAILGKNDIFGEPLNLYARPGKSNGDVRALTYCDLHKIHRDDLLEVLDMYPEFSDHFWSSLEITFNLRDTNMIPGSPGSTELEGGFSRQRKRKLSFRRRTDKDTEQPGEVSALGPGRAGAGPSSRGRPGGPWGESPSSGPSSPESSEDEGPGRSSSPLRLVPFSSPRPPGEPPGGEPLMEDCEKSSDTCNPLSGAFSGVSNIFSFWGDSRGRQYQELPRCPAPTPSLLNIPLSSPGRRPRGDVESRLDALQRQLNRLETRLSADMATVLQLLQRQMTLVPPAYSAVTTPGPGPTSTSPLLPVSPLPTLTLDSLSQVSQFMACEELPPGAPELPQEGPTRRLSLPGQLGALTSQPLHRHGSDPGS
T2 sequence (Q12809 whole entry): as above

## Cc1ccc(CCc2cccc(CCc3ccc(C)cc3)n2)cc1
[1]; human, hek293
  IC50: > 10 µM

## C[n+]1c(C#CCOc2ccccc2Cl)cccc1C#CCOc1ccccc1Cl
hERG (KCNH2) K+ channel [2]; [5]
  inhibition at 10 µM: 16%

## C[n+]1c(CCCOc2ccccc2)cccc1CCCOc1ccccc1
[1]
  IC50: 0.208 µM

## c1ccc(OCc2cccc(COc3ccccc3)n2)cc1
hERG (KCNH2) K+ channel [2]; hek293
  inhibition at 10 µM: 15%

## C[n+]1c(COc2ccccc2)cccc1COc1ccccc1
[1]
  IC50: 0.767 µM

## C(#Cc1cccc(C#Cc2ccccc2)n1)c1ccccc1
hERG (KCNH2) K+ channel [2]; [5]
  inhibition at 10 µM: -11%

## c1ccc(CCc2cccc(CCc3ccccc3)n2)cc1
[1]
  IC50: 1.61 µM

## c1ccc(CCc2cccc(CCc3ccccc3)c2)cc1
hERG (KCNH2) K+ channel [2]; [5]
  inhibition at 10 µM: 8%

## Cc1ccc(OCCCc2cc(N)cc(CCCOc3ccc(C)cc3)n2)cc1
[3]
  IC50: 0.146 µM
hERG (KCNH2) K+ channel [4]
  selectivity ratio: 0.86
[1]
  IC50: 0.17 µM

## Cc1ccc(Cc2cccc(COc3ccc(C)cc3)n2)cc1
hERG (KCNH2) K+ channel [2]; hek293
  inhibition at 10 µM: 9%

## Cc1ccc(Cc2ccnc(COc3ccc(C)cc3)c2)cc1
[1]
  IC50: > 10 µM
hERG (KCNH2) K+ channel [2]; [5]
  inhibition at 10 µM: -3%

## Cc1ccc(COCc2cccc(COCc3ccc(C)cc3)[n+]2C)cc1
[1]
  IC50: 0.107 µM

## Cc1ccc(CCOCc2cccc(COCCc3ccc(C)cc3)[n+]2C)cc1
[1]
  IC50: 0.135 µM

## Cc1ccc(CCCOCc2cccc(COCCCc3ccc(C)cc3)[n+]2C)cc1
[3]
  IC50: 0.194 µM
hERG (KCNH2) K+ channel [4]
  selectivity ratio: 8.1
[1]
  IC50: 0.024 µM

## Cc1ccc(C#Cc2cccc(C#Cc3ccc(C)cc3)[n+]2C)cc1
[1]
  IC50: 0.285 µM

## Cc1ccc(OCCCc2cccc(CCCOc3ccc(C)cc3)[n+]2C)cc1
[3]
  IC50: 0.962 µM
hERG (KCNH2) K+ channel [4]
  selectivity ratio: 11.2
[1]
  IC50: 0.086 µM

## Cc1ccc(CCOCCCc2cccc(CCCOCCc3ccc(C)cc3)[n+]2C)cc1
[1]
  IC50: 0.371 µM

## CCCCCCC#Cc1cccc(C#CCCCCCC)[n+]1C
[1]
  IC50: 1.99 µM

## C[n+]1c(C#Cc2ccc(-c3ccccc3)cc2)cccc1C#Cc1ccc(-c2ccccc2)cc1
[1]
  IC50: 0.294 µM

## C[n+]1c(C#Cc2cccc(Cl)c2)cccc1C#Cc1cccc(Cl)c1
[1]
  IC50: 4.02 µM

## C[n+]1c(C#Cc2ccccc2Cl)cccc1C#Cc1ccccc1Cl
[1]
  IC50: 3.9 µM
